The test system of the assay is IL-1β release upon NLRP3 activation in peripheral blood mononuclear cells (PBMC). The experiment in a line: PBMC IC50 determination assay: inhibition of IL-1β release upon NLRP3 activation. Type of assay: cell-based. The settings on record: PBMC, PBMC primed with LPS 3 h, compound 30 min, stimulated with ATP (5 mM) or nigericin (10 μM) 1 h; IL-1β by ELISA (Protocol A) or HTRF (Protocol B). A digest of the protocol: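 Human PBMC from buffy coats were primed 3 h with LPS (1 μg/mL in Protocol B), given compound for 30 min, then stimulated 1 h with ATP (5 mM) or nigericin (10 μM; Protocol A only). Released IL-1β was quantified by ELISA at 450 nm (Protocol A) or HTRF at […] (Protocol B).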
`COc1cc2c(=O)n(CC(=O)Nc3ncccn3)nc(C(C)C)c2o1` [Compound 108, 2-[2-Methoxy-4-oxo-7-(propan-2-yl)-4H,5H-furo[2,3-d]pyridazin-5-yl]-N-(pyrimidin-2-yl)acetamide]: the IC50 (commonly the concentration that gives 50% inhibition) is 3 to 10 µM.

The compound `[2H]C([2H])([2H])Nc1cc2c(C(C)C)nn(CC(=O)Nc3ncccn3)c(=O)c2s1` [Compound 109, 2-{2-Trideuteromethylamino-7-oxo-4-(propan-2-yl)-6H,7H-thieno[2,3-d]pyridazin-6-yl}-N-(pyrimidin-2-yl)acetamide] gave an IC50 of at most 0.1 µM.

In the case of `CCNc1cc2c(C(C)C)nn(C3(C(=O)Nc4ncccn4)CC3)c(=O)c2s1` [Compound 110, 1-[2-(Ethylamino)-7-oxo-4-(propan-2-yl)-6H,7H-thieno[2,3-d]pyridazin-6-yl]-N-(pyrimidin-2-yl)cyclopropane-1-carboxamide], the IC50 lay in the range of 3 to 10 µM.

In turn, `CNc1cc2c(=O)n(CC(=O)Nc3ncccn3)nc(C(C)C)c2o1` [Compound 111, 2-[2-(Methylamino)-4-oxo-7-(propan-2-yl)-4H,5H-furo[2,3-d]pyridazin-5-yl]-N-(pyrimidin-2-yl)acetamide] returned an IC50 of 0.1 to 1 µM.

As for `CNc1cc2c(C3CC3)nn(CC(=O)Nc3ncccn3)c(=O)c2s1` [Compound 112, 2-[4-Cyclopropyl-2-(methylamino)-7-oxo-6H,7H-thieno[2,3-d]pyridazin-6-yl]-N-(pyrimidin-2-yl)acetamide], the IC50 lay in the range of 0.1 to 1 µM.

`CNc1cc2c(C(C)C)nn(C3(C(=O)Nc4ncccn4)CC3)c(=O)c2s1` [Compound 113, 1-[2-(Methylamino)-7-oxo-4-(propan-2-yl)-6H,7H-thieno[2,3-d]pyridazin-6-yl]-N-(pyrimidin-2-yl)cyclopropane-1-carboxamide] came in with an IC50 of 10 to 50 µM.

With `CCc1nn(CC(=O)Nc2ncccn2)c(=O)c2sc(NC)cc12` [Compound 114, 2-[4-ethyl-2-(methylamino)-7-oxo-6H,7H-thieno[2,3-d]pyridazin-6-yl]-N-(pyrimidin-2-yl)acetamide], the IC50 fell in the range of 0.1 to 1 µM.

On to `CCc1nn(CC(=O)Nc2ncco2)c(=O)c2sc(NC)cc12` [Compound 115, 2-[4-Ethyl-2-(methylamino)-7-oxo-6H,7H-thieno[2,3-d]pyridazin-6-yl]-N-(1,3-oxazol-2-yl)acetamide], for which the half-maximal inhibitory concentration (IC50) lay in the range of 0.1 to 1 µM.

For the compound `CCc1nn(CC(=O)Nc2ncccn2)c(=O)c2sc(C)cc12` [Compound 116], the IC50 was in the range of 1 to 3 µM.

On to `Cc1cc2c(C)nn(CC(=O)Nc3ncccn3)c(=O)c2s1` [Compound 117, 2-{2,4-Dimethyl-7-oxo-6H,7H-thieno[2,3-d]pyridazin-6-yl}-N-(pyrimidin-2-yl)acetamide], for which the IC50 was in the range of 1 to 3 µM.

Consider `CNc1cc2c(C)nn(CC(=O)Nc3ncccn3)c(=O)c2s1` [Compound 118, 2-[4-methyl-2-(methylamino)-7-oxo-6H,7H-thieno[2,3-d]pyridazin-6-yl]-N-(pyrimidin-2-yl)acetamide], for which the IC50 is 1 to 3 µM.

With `CNc1cc2c(C)nn(CC(=O)Nc3ncco3)c(=O)c2s1` [Compound 119, 2-[4-Methyl-2-(methylamino)-7-oxo-6H,7H-thieno[2,3-d]pyridazin-6-yl]-N-(1,3-oxazol-2-yl)acetamide], the IC50 lay within 1 to 3 µM.

On to `CC(C)c1nn(CC(=O)Nc2ncccn2)c(=O)c2sc(CN)cc12` [Compound 120, 2-[2-(Aminomethyl)-7-oxo-4-(propan-2-yl)-6H,7H-thieno[2,3-d]pyridazin-6-yl]-N-(pyrimidin-2-yl)acetamide], for which the IC50 lay in the range of 10 to 50 µM.

The values above are taken from patent publication US20250066369A1, “BICYCLIC PHTHALAZIN-1(2H)-ONE DERIVATIVES AND RELATED USES” (NodThera Limited, priority 2022, published 2025).
